On the set-up of data set [1]: species or system humans. To be noted: in vivo. The source says: AT-001 is in clinical development by Applied Therapeutics for treatment of diabetic cardiomyopathy (American Heart Association 2019 Abstract Mo-2278). […] So, AT-001 would be between approximately 7-12 times shorter lived in human plasma compared to the reported human plasma half-life of zopolrestat (vide infra).

For data set [2] the following is noted: humans, oral, SAD and MAD studies; cited from earlier work.
Another data set concerns the target T1, TRPV2 (Mus musculus, UniProt Q9WTR1).
T1 construct: TRPV2 is expressed in the murine heart; host or cells: murine heart (in vitro and in vivo)
T1 sequence (Q9WTR1 1-756): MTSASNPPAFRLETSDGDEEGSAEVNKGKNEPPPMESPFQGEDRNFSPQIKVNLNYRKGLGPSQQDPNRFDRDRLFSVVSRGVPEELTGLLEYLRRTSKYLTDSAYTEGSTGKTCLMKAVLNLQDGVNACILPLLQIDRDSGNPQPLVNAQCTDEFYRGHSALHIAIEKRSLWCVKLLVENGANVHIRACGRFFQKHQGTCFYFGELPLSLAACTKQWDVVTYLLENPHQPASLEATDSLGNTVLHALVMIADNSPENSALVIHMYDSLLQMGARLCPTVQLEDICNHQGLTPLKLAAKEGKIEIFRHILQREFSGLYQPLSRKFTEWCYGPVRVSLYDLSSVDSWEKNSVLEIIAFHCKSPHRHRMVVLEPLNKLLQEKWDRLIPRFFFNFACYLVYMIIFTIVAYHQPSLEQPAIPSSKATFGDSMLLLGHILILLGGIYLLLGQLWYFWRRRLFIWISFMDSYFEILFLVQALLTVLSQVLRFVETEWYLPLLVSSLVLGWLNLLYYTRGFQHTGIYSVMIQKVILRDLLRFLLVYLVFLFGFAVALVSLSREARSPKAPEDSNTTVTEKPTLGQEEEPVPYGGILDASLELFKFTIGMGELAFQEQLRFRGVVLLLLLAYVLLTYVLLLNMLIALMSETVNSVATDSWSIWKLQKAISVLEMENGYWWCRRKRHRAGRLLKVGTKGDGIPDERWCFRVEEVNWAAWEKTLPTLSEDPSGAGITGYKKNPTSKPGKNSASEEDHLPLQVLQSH
The following applies: cited from earlier work.

For data set [3] the following is noted: animal model, cited from earlier work.
For data set [4], the target named is T2, transient receptor potential vanilloid 2 (TRPV2) channel (Homo sapiens, UniProt Q9Y5S1).
T2 sequence (Q9Y5S1 1-764): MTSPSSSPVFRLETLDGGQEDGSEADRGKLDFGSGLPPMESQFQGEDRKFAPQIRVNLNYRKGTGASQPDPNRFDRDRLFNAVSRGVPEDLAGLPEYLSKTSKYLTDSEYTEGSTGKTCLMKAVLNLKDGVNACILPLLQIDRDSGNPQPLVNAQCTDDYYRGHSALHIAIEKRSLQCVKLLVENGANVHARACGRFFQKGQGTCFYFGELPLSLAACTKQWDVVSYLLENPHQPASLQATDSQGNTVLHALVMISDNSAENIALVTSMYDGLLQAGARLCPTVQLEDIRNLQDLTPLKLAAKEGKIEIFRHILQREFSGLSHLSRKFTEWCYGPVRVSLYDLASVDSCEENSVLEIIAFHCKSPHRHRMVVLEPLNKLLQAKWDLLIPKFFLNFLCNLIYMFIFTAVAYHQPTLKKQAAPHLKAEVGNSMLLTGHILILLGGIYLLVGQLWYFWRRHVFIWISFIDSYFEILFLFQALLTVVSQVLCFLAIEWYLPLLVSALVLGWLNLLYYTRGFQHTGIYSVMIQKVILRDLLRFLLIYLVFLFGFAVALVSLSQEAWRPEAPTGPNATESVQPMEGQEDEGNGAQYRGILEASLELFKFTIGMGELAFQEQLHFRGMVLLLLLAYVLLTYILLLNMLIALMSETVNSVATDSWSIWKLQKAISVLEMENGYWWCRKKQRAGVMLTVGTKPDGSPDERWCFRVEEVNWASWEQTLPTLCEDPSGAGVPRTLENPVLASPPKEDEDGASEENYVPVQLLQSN
To be noted: cited from earlier work.

For data set [5] the following is noted: mouse model of peripartum cardiomyopathy; cited from earlier work.
For data set [6] the following is noted: non-diabetic patients with heart failure with reduced ejection fraction; cited from earlier work.
For data set [7] the following is noted: water; cited from earlier work.
For data set [8] the following is noted: ARI i.v. with probenecid i.p., Sprague-Dawley rats; cited from earlier work.
For data set [9] the following is noted: humans; cited from earlier work.
For data set [10] the following is noted: cited from earlier work.
For data set [11] the following is noted: humans, oral route; cited from earlier work.

Molecules are shown by their SMILES. Like-named read-outs stand apart in the source and are kept apart here.

As for `O=C(O)Cc1nn(Cc2nc3cc(C(F)(F)F)ccc3s2)c(=O)c2nccnc12` [AT-001], the “times shorter lived in human plasma compared to zopolrestat” value in data set [1] is reported as 7-12 times. In data set [2], the “median time of maximum concentration (Tmax)” value was 1.75 to 3.38 h and the plasma half-life is 1.74 to 3.38 h.

`CCCN(CCC)S(=O)(=O)c1ccc(C(=O)O)cc1` [probenecid, 4-(dipropylsulfamoyl)benzoic acid]: on TRPV2 (both in vitro and in vivo), the inotropic response entry is “positive inotropic response”. On TRPV2 (murine heart, TRPV2 activated with probenecid), the “cytosolic calcium (Ca2+) concentration” value was “increases”. Also, the “apoptotic or arrhythmic pathways” value in data set [3] is reported as “does not elicit”. In addition, the myocardial contractility entry in [3] (via increased calcium cycling on a beat-to-beat basis) is recorded as “increases”. Further, the “agonism of TRPV2 channel” value in data set [4] is reported as “potent agonist”. Also, in data set [5], the outcomes is reported as “improves outcomes”. Further, the cardiac function result in data set [6] is recorded as “improve cardiac function”.

The term solubility denotes how much of the substance goes into solution per volume. For `CCCN(CCC)S(=O)(=O)c1ccc(C(=O)[O-])cc1.[Na+]` [sodium salt of probenecid], the solubility in [7] is 77 mg/mL.

Regarding `O=C(O)CNS(=O)(=O)c1ccc(NC(=O)c2ccccc2)cc1` [N-[4-(benzoylaminophenyl)sulfonyl]glycine], the “plasma profiles and pharmacokinetic parameters (AUC, clearance, mean residence time, volume of distribution)” value in [8] is reported as “did not alter”.

Consider `CC(/C=C1\SC(=S)N(CC(=O)O)C1=O)=C\c1ccccc1` [Epalrestat], for which the plasma half-life result in data set [9] is on record as “relatively short”.

Regarding `O=C(O)Cc1nn(Cc2nc3cc(C(F)(F)F)ccc3s2)c(=O)c2ccccc12` [zopolrestat], the “resting diastolic filling rates” value in data set [10] (after 1 year of treatment, either group) was “no change”. Also, in [10] (after 1 year of zopolrestat treatment, P 0.001), the “exercise LVEF” value is on record as “increases”. Further, in data set [10] (after 1 year of zopolrestat treatment, P 0.004), the “left ventricular stroke volume” value is “increases”. Moreover, the “resting left ventricular ejection fraction (LVEF)” value in data set [10] (after 1 year of zopolrestat treatment, P 0.02) is on record as “increases”. The cardiac output entry in data set [10] (after 1 year of zopolrestat treatment, P 0.03) is recorded as “increases”. Moreover, in data set [11], the plasma half-life was 27.5 h.

The values are drawn from patent US20240033263A1, “COMBINATION OF ALDOSE REDUCTASE INHIBITORS AND PROBENECID FOR THE TREATMENT OF DIABETIC COMPLICATIONS” (priority 2021, published 2024).
